The subject of assay [1] is secretion of cytokine IL-8 triggered by lipopolysaccharide (LPS) in the human monocyte cell line THP-1. The experiment in a line: Inhibition of LPS-triggered IL-8 secretion in THP-1 cells (ELISA). Format: cell-based. On the procedure:
The inventive compounds of general formula (I) inhibit the secretion of cytokine IL-8 triggered by lipopolysaccharide (LPS) in the human monocyte cell line THP-1. The concentration of cytokines was determined in the supernatant using commercially available ELISA kits.
In general terms: An ELISA detects its analyte on a solid surface through an enzyme-linked reagent.

Assay [2] addresses T1, progesterone receptor (PR) (Homo sapiens, UniProt P06401).
T1 sequence (P06401 1-933): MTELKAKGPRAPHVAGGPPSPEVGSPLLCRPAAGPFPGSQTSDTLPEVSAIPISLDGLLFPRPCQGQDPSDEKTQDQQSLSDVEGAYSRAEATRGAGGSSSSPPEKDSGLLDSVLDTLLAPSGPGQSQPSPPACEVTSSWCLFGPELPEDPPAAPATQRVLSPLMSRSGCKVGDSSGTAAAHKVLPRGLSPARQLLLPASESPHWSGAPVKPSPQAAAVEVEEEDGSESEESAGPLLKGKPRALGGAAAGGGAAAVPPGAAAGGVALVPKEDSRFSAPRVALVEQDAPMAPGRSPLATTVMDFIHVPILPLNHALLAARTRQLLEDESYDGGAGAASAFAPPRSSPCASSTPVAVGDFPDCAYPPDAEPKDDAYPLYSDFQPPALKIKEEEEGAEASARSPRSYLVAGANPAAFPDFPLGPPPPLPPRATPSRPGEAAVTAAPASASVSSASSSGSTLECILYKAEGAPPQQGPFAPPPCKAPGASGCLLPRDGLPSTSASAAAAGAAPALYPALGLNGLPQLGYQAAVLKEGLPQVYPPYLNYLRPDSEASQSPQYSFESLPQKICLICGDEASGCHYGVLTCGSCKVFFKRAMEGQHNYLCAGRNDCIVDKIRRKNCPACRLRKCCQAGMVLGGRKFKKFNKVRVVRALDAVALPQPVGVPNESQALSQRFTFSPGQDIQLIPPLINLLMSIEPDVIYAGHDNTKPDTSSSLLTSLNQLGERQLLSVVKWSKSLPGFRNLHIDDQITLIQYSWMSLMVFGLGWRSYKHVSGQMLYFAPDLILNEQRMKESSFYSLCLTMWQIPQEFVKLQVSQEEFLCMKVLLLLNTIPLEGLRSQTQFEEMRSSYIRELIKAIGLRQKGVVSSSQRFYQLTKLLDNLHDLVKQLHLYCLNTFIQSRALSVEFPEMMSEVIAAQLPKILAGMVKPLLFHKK
The experiment in a line: Binding to recombinant progesterone receptor. As to the method: (§1) The binding of substances to the glucocorticoid receptor (GR) and other steroid hormone receptors (mineral corticoid receptor (MR), progesterone receptor (PR) and androgen receptor (AR)) is tested with the help of recombinant receptors. Cytosol preparations of Sf9 cells infected with recombinant baculoviruses that code for GR are used for binding tests. In comparison with the reference substance [^3H]-dexamethasone, these substances have a high affinity for GR. An IC50 (GR)=20 nM and IC50 (PR)>1 μM have been obtained for the compound from Example 2.

Assay [3] addresses T2, glucocorticoid receptor (GR) (Homo sapiens, UniProt P04150).
T2 construct: made in house; host or cells: Sf9 cells infected with recombinant baculovirus (cytosol preparation)
T2 sequence (P04150 1-777): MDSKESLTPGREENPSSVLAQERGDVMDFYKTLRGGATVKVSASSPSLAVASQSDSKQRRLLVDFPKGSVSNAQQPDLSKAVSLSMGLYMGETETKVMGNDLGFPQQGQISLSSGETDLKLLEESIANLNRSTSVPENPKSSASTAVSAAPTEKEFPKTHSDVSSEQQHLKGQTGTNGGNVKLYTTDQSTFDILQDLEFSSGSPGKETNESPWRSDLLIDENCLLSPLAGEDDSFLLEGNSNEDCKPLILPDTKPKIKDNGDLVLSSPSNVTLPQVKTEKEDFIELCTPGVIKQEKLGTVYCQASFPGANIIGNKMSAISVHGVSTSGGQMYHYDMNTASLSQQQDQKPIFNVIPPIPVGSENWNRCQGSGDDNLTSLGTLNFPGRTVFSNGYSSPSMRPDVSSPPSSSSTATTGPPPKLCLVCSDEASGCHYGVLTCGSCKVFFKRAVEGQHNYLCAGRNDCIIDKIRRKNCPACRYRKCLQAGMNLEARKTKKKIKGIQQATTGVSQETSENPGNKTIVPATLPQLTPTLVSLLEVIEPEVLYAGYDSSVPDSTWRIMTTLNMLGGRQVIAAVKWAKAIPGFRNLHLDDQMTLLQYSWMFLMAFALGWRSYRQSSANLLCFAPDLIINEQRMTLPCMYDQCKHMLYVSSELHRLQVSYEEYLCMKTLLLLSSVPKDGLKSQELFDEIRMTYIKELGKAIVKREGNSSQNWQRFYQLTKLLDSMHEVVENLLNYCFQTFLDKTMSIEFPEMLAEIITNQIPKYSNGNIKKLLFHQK
As to the kind of experiment: Binding to recombinant glucocorticoid receptor, reference [3H]-dexamethasone. As to conditions: cytosol preparations of Sf9 cells infected with recombinant baculoviruses coding for GR; [3H]-dexamethasone reference. On the procedure: as §1

As to `Cc1ccc2c(NC3c4ccc(F)c5c4C(CCO5)CC3(O)C(F)(F)F)cccc2n1` (mixture of isomers) [Example 2, 9-Fluoro-6-[(2-methylquinolin-5-yl)amino]-5-(trifluoromethyl)-2,3,3a,4,5,6-hexahydrobenzo[de]chromen-5-ol], the concentration for half-maximal inhibition (IC50) is 37 nM in assay [1] (Homo sapiens, LPS-stimulated THP-1, IL-8 in supernatant by ELISA, read-out: IC50 (IL8)); over 1000 nM in assay [2]; 20 nM in assay [3]. Moreover, the “efficiency with respect to [3H]-dexamethasone as the standard” value in assay [1] (IL-8 inhibition in LPS-stimulated THP-1) was determined as 70%.

The IC50 is the concentration needed to halve the response being measured.

The values above are taken from US20060167025A1, “Tricyclic amino alcohols, processes for synthesis of same and use of same as anti-inflammatory drugs” (priority 2004, published 2006).
